The source of these data is paper PMC12198292, “Advancing in vitro assessment of iodide uptake inhibition: integrating a novel biotransformation pretreatment step” (Archives of Toxicology, 2025).

The target of data set [1] is T1, NIS (Rattus norvegicus, UniProt Q63008).
T1 construct: the endogenously NIS-expressing rat FRTL-5 cell line; host or cells: FRTL-5 (CVCL_0265)
T1 sequence (Q63008 1-618): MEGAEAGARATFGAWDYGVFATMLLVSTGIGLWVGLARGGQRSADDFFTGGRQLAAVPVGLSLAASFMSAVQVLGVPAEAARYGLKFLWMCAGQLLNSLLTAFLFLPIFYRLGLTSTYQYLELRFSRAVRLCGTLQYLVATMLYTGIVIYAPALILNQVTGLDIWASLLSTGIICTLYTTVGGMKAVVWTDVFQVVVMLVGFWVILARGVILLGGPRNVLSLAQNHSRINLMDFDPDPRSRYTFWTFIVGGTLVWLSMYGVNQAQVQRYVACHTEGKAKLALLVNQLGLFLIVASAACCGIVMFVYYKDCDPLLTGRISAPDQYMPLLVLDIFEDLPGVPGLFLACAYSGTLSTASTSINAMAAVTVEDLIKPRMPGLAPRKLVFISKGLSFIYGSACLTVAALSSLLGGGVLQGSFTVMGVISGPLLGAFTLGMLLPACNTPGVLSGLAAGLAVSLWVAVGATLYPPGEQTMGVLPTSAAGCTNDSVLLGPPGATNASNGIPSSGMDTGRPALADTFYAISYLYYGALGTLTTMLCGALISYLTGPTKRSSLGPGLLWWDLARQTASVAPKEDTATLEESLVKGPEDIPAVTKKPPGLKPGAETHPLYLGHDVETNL
Nature of the data set: NIS-inhibition assay (iodide uptake, Sandell–Kolthoff reaction) on FRTL-5. It is filed as cell-based. Conditions: mean ± SD, ≥ 3 independent experiments; 2 h exposure; SK reaction.

The target in data set [2] is T2, human NIS (Homo sapiens, UniProt Q92911).
T2 sequence (Q92911 1-643): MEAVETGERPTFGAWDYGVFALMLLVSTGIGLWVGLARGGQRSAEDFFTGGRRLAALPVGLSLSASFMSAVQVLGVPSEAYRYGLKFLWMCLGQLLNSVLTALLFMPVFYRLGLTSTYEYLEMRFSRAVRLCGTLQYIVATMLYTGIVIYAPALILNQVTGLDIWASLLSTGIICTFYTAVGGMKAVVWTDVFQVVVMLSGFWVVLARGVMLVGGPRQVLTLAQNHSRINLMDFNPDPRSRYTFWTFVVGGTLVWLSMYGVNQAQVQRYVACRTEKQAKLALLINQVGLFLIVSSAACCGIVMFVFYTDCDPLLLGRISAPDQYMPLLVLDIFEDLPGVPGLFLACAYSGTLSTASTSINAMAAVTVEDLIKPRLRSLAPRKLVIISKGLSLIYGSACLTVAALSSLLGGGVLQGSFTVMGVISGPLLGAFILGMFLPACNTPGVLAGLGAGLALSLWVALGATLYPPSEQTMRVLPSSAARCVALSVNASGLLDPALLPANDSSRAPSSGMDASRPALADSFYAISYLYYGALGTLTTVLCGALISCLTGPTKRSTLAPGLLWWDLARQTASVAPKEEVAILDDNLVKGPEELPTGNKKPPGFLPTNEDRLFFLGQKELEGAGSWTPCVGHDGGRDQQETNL

Details of data set [3]: method as in PubChem https://pubchem.ncbi.nlm.nih.gov/. Conditions: ref PubChem https://pubchem.ncbi.nlm.nih.gov/; cited from earlier work.
On the set-up of data set [4]: method as in PubChem https://pubchem.ncbi.nlm.nih.gov/. Conditions: ref PubChem https://pubchem.ncbi.nlm.nih.gov/; cited from earlier work. This is another data set of the same source.
The target of data set [5] is T1, NIS. Conditions: FRTL-5, SK, read-out: Data from literature NIS IC50, cited from earlier work.
The nature of data set [6]: in vitro. Conditions: human.
Data set [7] in a line: in vitro. Conditions: rat, FRTL-5 cells.
Data set [8] deals with T2, human NIS. In words: Biotransformation (BTS, rat S9)-augmented NIS-inhibition assay, HEK293T NIS02. Conditions: for increase of IC20 by preincubation in fully active BTS setup compared to the denatured BTS setup: W/S9, W/cof vs D S9, W/cof.
In data set [9] the target is T2, human NIS. In words: NIS-inhibition assay (iodide uptake, Sandell–Kolthoff reaction) on HEK293T NIS 02. Conditions: mean ± SD, ≥ 3 independent experiments; 2 h exposure; SK reaction; read-out: NIS IC50 HEK293T NIS 02. It is filed as cell-based. Set-up: host or cells: HEK293T (lentiviral transduction, puromycin selection, GFP sorting; lines NIS 02 and NIS C).
In data set [10] the target is T2, human NIS. Nature of the data set: NIS-inhibition assay (iodide uptake, Sandell–Kolthoff reaction) on HEK293T NIS C. The arrangement: host or cells: HEK293T (lentiviral transduction, puromycin selection, GFP sorting; lines NIS 02 and NIS C). Conditions: mean ± SD, ≥ 3 independent experiments, 2 h exposure, SK reaction; for IC50: read-out: NIS IC50 HEK293T NIS C. The format is cell-based.

In data set [11] the target is T2, human NIS. Set-up: host or cells: HEK293T (lentiviral transduction, puromycin selection, GFP sorting; lines NIS 02 and NIS C). Conditions: hNIS-HEK293T-EPA, RAIU, cited from earlier work; for IC20: read-out: Data from literature NIS IC20; for Data from literature NIS IC50: 2018; for IC50: read-out: Data from literature NIS IC50.
Data set [12] addresses T2, human NIS. The arrangement: method as in Dong et al., 2019. Conditions: MCF7hNIS, SK, ref Dong et al., 2019, cited from earlier work; for IC20: read-out: Data from literature NIS IC20.
Data set [13] deals with T2, human NIS. The arrangement: host or cells: HEK293T (lentiviral transduction, puromycin selection, GFP sorting; lines NIS 02 and NIS C); method as in Dong et al., 2019. Conditions: hNIS-HEK293T-EPA, SK, ref Dong et al., 2019, cited from earlier work.
Data set [14] concerns the target T1, NIS. Conditions: FRTL-5, RAIU, read-out: Data from literature NIS IC50, cited from earlier work.
In data set [15] the test system is hNIS. The arrangement: method as in Concilio et al., 2020. Conditions: HeLa transfected with hNIS; RAIU; ref Concilio et al., 2020; read-out: Data from literature NIS IC50; cited from earlier work.
Data set [16] concerns whale NIS. Set-up: method as in Concilio et al., 2020. Conditions: HeLa transfected with whale NIS; RAIU; ref Concilio et al., 2020; read-out: Data from literature NIS IC50; cited from earlier work.
Data set [17] relates to zebrafish NIS. The arrangement: method as in Concilio et al., 2020. Conditions: HeLa transfected with zebrafish NIS; RAIU; ref Concilio et al., 2020; read-out: Data from literature NIS IC50; cited from earlier work.
The conditions of data set [18]: ref PubChem https://pubchem.ncbi.nlm.nih.gov/; cited from earlier work.
Data set [19] relates to FRTL-5 cells. Nature of the data set: Neutral red uptake viability assay, FRTL-5. Conditions: read-out: NR IC20 FRTL-5, mean±SD, 2 h exposure.
In data set [20] the test system is HEK293T NIS02 cells. In words: Neutral red uptake viability assay, HEK293T NIS02. Conditions: read-out: NR IC20 HEK293T NIS02; viability, neutral red assay; mean±SD; 2 h exposure.
Data set [21] deals with HEK293T NIS C cells. Nature of the data set: Neutral red uptake viability assay, HEK293T NIS C. Conditions: read-out: NR IC20 HEK293T NISC, mean±SD, 2 h exposure.
[22] abbreviates: read-out: Data from literature NIS IC50.

The structures appear in SMILES notation. Values joined by “and” are separate entries in the source; they are usually repeats but may differ in a detail not shown here. Identical values can stand only once. Like-named read-outs stand apart in the source and are kept apart here. Bounds are passed on as bounds.

By IC50 is commonly meant the concentration needed to halve the response being measured. In general, IC20 refers to the point of the concentration-response curve where the effect stands at 20%. Regarding `CC(C)(c1ccc(O)cc1)c1ccc(O)cc1` [BPA, Bisphenol A], the IC50 is 302 ± 197 µM in data set [1]; 112 µM in data set [5] (ref Wu et al., 2016); 111 ± 75 µM in data set [9]; 309 ± 2.5 µM in [10]. For the same compound, the “effect of fully active BTS (W/S9, W/cof) on NIS inhibition versus control setups” value (shortened to “effect … on NIS inhibition versus control setups”) in data set [2] is listed as “statistically significant reduction in NIS inhibition”. Moreover, the “log Kow” value in data set [3] was 3.32. For the same compound, the “Henry‘s law” value in data set [4] was 4.0x10^-11 atm- m^3/mol. The IC20 at 2 h in [6] (HEK293T NIS C cells) was 181 µM; in data set [7], 364 µM. In addition, in data set [8], the “increase of IC20 by preincubation in fully active BTS setup compared to the denatured BTS setup” value is on record as approximately 6.3 fold. Besides, the IC20 is 4.7 ± 6 µM in [8] (read-out: NIS inhibition IC20 SM, standard method without preincubation, run in parallel, three independent experiments); 35.5 µM in data set [11] (ref Hallinger et al., 2017); 24.3 ± 21.6 µM in data set [11] (ref US-EPA, 2024); 19.5 µM in data set [11] (ref Wang et al., 2019). Also, the “Data from literature NIS IC50” value in data set [11] (ref Wang et al.) is “n.e”.

`CCCCOC(=O)c1ccccc1C(=O)OCCCC` [DBP, Dibutylphthalate]: the IC50 is 92.3 ± 11.8 µM in [1]; 51.7 µM and 52 µM in [9]; 26.9 µM in data set [11] (ref US-EPA, 2024). For the same compound, the concentration for an effect of 20% (IC20) in data set [2] is 5.57 ± 4.6 µM; in data set [12], 63.1 µM; in data set [11] (ref Dong et al., 2019), 26.9 µM; in [11] (ref Hallinger et al., 2017), 191 µM. Besides, the “effect … on NIS inhibition versus control setups” value in [2] is on record as “statistically significant reduction in NIS inhibition”. Besides, the “log Kow” value in data set [3] is 4.5. In addition, in data set [4], the “Henry‘s law” value is listed as 1.81x10^-6 atm- m^3/mol. The compound further had an IC20 at 2 h in data set [6] of 42 µM. The “increase of IC20 by preincubation in fully active BTS setup compared to the denatured BTS setup” value in data set [8] is reported as “more than ninefold”. For the same compound, the “NIS IC50 HEK293T NIS C” value in [10] is “n.e and n.e”. Further, the “Data from literature NIS IC50” value in [11] (ref Wang et al.) and in [13] was “n.e” throughout.

Take `[O-][Cl+3]([O-])([O-])O` [PCL, Perchlorate, reference compound]: the IC50 in data set [1] is 5.1 ± 4.6 µM; in [5] (ref Waltz et al., 2010) it was 0.1 µM; in data set [5] (ref Wu et al., 2016), 0.3 µM; in data set [12] (setting [22]), 0.5 µM; in data set [14] (ref Buckalew et al., 2020), 0.2 µM; in [14] (ref Waltz et al., 2010), 0.14 µM. Further, the IC50 in data set [15] was 1.6 µM and 1.56 µM; in data set [16], 4.6 µM and 4.59 µM; in data set [17], 0.08 µM; in data set [9] it was 1.65 ± 0.57 µM; in [10], 14.9 ± 8.3 µM; in data set [11] (ref Dong et al., 2019), 0.53 µM. For the same compound, the IC50 in data set [13] (setting [22]) is 0.8 µM. The IC20 was 0.2 µM in [12]; 0.1 µM in data set [11] (ref Dong et al., 2019); 0.2 µM in data set [11] (ref Hallinger et al., 2017); 0.2 µM in [13] (read-out: Data from literature NIS IC20). For the same compound, the solubility in water in [18] was more than 2000 mg/mL. In addition, the “effect … on NIS inhibition versus control setups” value in [8] (two-way ANOVA, p < 0.05) is given as “no significant differences were observed”.

On to `CC(C)(c1cc(Br)c(O)c(Br)c1)c1cc(Br)c(O)c(Br)c1` [TBBPA, Tetrabromobisphenol A], for which the IC50 in data set [1] was 91.8 ± 10.8 µM; in [9], 30.1 ± 11.8 µM; in data set [10], 54 ± 27.1 µM; in data set [11] (ref US-EPA, 2024) it was 91.1 µM. Also, in data set [3], the “log Kow” value is listed as 4.75. Further, in data set [4], the “Henry‘s law” value is reported as 2.0x10^-7 atm- m^3/mol. The IC20 in data set [19] is 33.4 µM; in data set [20], 66.8 µM; in data set [21] it was 57.6 µM.
